# Experimental data reported in patent US20140303164A1, “THERAPEUTIC COMPOUNDS” (Gilead Sciences, Inc., priority 2013, published 2014).
# System: HIV-IIIb
# Assay: Test A: Antiviral Assay in MT4 Cells
# Assay type: cell-based, HIV-1
# Conditions: Human immunodeficiency virus 1, IIIB, MT4, 120 h, read-out: % inhibition at 0.2 μM
# Description: Test A: Antiviral Assay in MT4 Cells
# MT-4 cells were next mixed with HIV-IIIb at an m.o.i of 0.003 for 1 hour, after which time 35 μL of virus/cell mixture (2000 cells) was immediately added to each well containing 40 μL of diluted compound. The plates were then incubated at 37° C. for 5 days. […] Cell lysis was carried out by incubating at room temperature for 10 min and then chemiluminescence was read.
row,SMILES,inhibition at 0.2 µM [%]
1,"NC(=O)c1ccc(-c2cnc3[nH]ccc3c2)c([C@H](Cc2cc(F)cc(F)c2)NC(=O)Cn2nc(C(F)F)c3c2C(F)(F)CCC3(F)F)n1 [Compound 1B, (S)-6-(1-(2-(3-(difluoromethyl)-4,4,7,7-tetrafluoro-4,5,6,7-tetrahydro-1H-indazol-1-yl)acetamido)-2-(3,5-difluorophenyl)ethyl)-5-(1H-pyrrolo[2,3-b]pyridin-5-yl)picolinamide]",17
2,"CC(C)(O)C#Cc1ccc(-c2cccc3c(=O)[nH]cnc23)c([C@H](Cc2cc(F)cc(F)c2)NC(=O)Cn2nc(C(F)(F)F)c3c2C(F)(F)[C@@H]2C[C@H]32)n1 [Compound 2, 2-((3bS,4aR)-5,5-difluoro-3-(trifluoromethyl)-3b,4,4a,5-tetrahydro-1H-cyclopropa[3,4]cyclopenta[1,2-c]pyrazol-1-yl)-N—((S)-2-(3,5-difluorophenyl)-1-(6-(3-hydroxy-3-methylbut-1-yn-1-yl)-3-(4-oxo-3,4-dihydroquinazolin-8-yl)pyridin-2-yl)ethyl)acetamide]",79
3,"CC(C)(O)C#Cc1ccc(-c2ccc3c(c2)C(=O)NC32CC2)c([C@H](Cc2cc(F)cc(F)c2)NC(=O)Cn2nc(C(F)(F)F)c3c2C(F)(F)[C@@H]2C[C@H]32)n1 [Compound 3D, 2-((3bS,4aR)-5,5-difluoro-3-(trifluoromethyl)-3b,4,4a,5-tetrahydro-1H-cyclopropa[3,4]cyclopenta[1,2-c]pyrazol-1-yl)-N—((S)-2-(3,5-difluorophenyl)-1-(6-(3-hydroxy-3-methylbut-1-yn-1-yl)-3-(3′-oxospiro[cyclopropane-1,1′-isoindolin]-5′-yl)pyridin-2-yl)ethyl)acetamide]",82
4,"CC(C)(O)C#Cc1cnc([C@H](Cc2cc(F)cc(F)c2)NC(=O)Cn2nc(C(F)F)c3c2C(F)(F)CCC3(F)F)c(-c2ccc3c(c2)C(=O)NC3)c1 [Compound 4H, (S)-2-(3-(difluoromethyl)-4,4,7,7-tetrafluoro-4,5,6,7-tetrahydro-1H-indazol-1-yl)-N-(2-(3,5-difluorophenyl)-1-(5-(3-hydroxy-3-methylbut-1-ynyl)-3-(3-oxoisoindolin-5-yl)pyridin-2-yl)ethyl)acetamide]",8
5,"O=C(Cn1nc(C(F)F)c2c1C(F)(F)CCC2(F)F)N[C@@H](Cc1cc(F)cc(F)c1)c1nc(-c2ccc3c(c2)C(=O)NC3)ccc1-c1ccc2c(c1)C(=O)NC2 [Compound 6, (S)—N-(1-(3,6-bis(3-oxoisoindolin-5-yl)pyridin-2-yl)-2-(3,5-difluorophenyl)ethyl)-2-(3-(difluoromethyl)-4,4,7,7-tetrafluoro-4,5,6,7-tetrahydro-1H-indazol-1-yl)acetamide]",5
6,"O=C(Cn1nc(C(F)F)c2c1C(F)(F)CCC2(F)F)N[C@@H](Cc1cc(F)cc(F)c1)c1nc(-c2cnc3[nH]ccc3c2)ccc1-c1cnc2[nH]ccc2c1 [Compound 7, (S)—N-(1-(3,6-bis(1H-pyrrolo[2,3-b]pyridin-5-yl)pyridin-2-yl)-2-(3,5-difluorophenyl)ethyl)-2-(3-(difluoromethyl)-4,4,7,7-tetrafluoro-4,5,6,7-tetrahydro-1H-indazol-1-yl)acetamide]",8
7,"COc1cc(-c2ccc(-c3ccc4c(c3)C(=O)NC4)c([C@H](Cc3cc(F)cc(F)c3)NC(=O)Cn3nc(C(F)F)c4c3C(F)(F)CCC4(F)F)n2)ccn1 [Compound 8C, (S)-2-(3-(difluoromethyl)-4,4,7,7-tetrafluoro-4,5,6,7-tetrahydro-1H-indazol-1-yl)-N-(2-(3,5-difluorophenyl)-1-(2′-methoxy-5-(3-oxoisoindolin-5-yl)-[2,4′-bipyridin]-6-yl)ethyl)acetamide]",6
8,"CC(C)(O)C#Cc1ccc(-c2ccc3c(c2)C(=O)NC3)c([C@H](Cc2cc(F)cc(F)c2)NC(=O)Cn2nc(C(F)F)c3c2C(F)(F)CCC3(F)F)n1 [Compound 9B, (S)-2-(3-(difluoromethyl)-4,4,7,7-tetrafluoro-4,5,6,7-tetrahydro-1H-indazol-1-yl)-N-(2-(3,5-difluorophenyl)-1-(6-(3-hydroxy-3-methylbut-1-yn-1-yl)-3-(3-oxoisoindolin-5-yl)pyridin-2-yl)ethyl)acetamide]",92
9,"O=C(Cn1nc(C(F)F)c2c1C(F)(F)CCC2(F)F)N[C@@H](Cc1cc(F)cc(F)c1)c1ncc(-c2ccc3c(c2)C(=O)NC3)cc1-c1ccc2c(c1)C(=O)NC2 [Compound 10B, (S)—N-(1-(3,5-bis(3-oxoisoindolin-5-yl)pyridin-2-yl)-2-(3,5-difluorophenyl)ethyl)-2-(3-(difluoromethyl)-4,4,7,7-tetrafluoro-4,5,6,7-tetrahydro-1H-indazol-1-yl)acetamide]",1
10,"O=C(Cn1nc(C(F)F)c2c1C(F)(F)CCC2(F)F)N[C@@H](Cc1cc(F)cc(F)c1)c1ncc(-c2cnc3[nH]ccc3c2)cc1-c1cnc2[nH]ccc2c1 [Compound 11, (S)—N-(1-(3,5-di(1H-pyrrolo[2,3-b]pyridin-5-yl)pyridin-2-yl)-2-(3,5-difluorophenyl)ethyl)-2-(3-(difluoromethyl)-4,4,7,7-tetrafluoro-4,5,6,7-tetrahydro-1H-indazol-1-yl)acetamide]",3
11,"O=C(Cn1nc(C(F)F)c2c1C(F)(F)CCC2(F)F)N[C@@H](Cc1cc(F)cc(F)c1)c1nc(-c2cc[nH]c(=O)c2)ccc1-c1ccc2c(c1)C(=O)NC2 [Compound 12, (S)-2-(3-(difluoromethyl)-4,4,7,7-tetrafluoro-4,5,6,7-tetrahydro-1H-indazol-1-yl)-N-(2-(3,5-difluorophenyl)-1-(2′-oxo-5-(3-oxoisoindolin-5-yl)-1′,2′-dihydro-[2,4′-bipyridin]-6-yl)ethyl)acetamide]",1
12,"CC(C)(O)C#Cc1ccc(-c2cccc3c2CNC3=O)c([C@H](Cc2cc(F)cc(F)c2)NC(=O)Cn2nc(C(F)(F)F)c3c2C(F)(F)[C@@H]2C[C@H]32)n1 [Compound 14E, 2-((3bS,4aR)-5,5-difluoro-3-(trifluoromethyl)-3b,4,4a,5-tetrahydro-1H-cyclopropa[3,4]cyclopenta[1,2-c]pyrazol-1-yl)-N—((S)-2-(3,5-difluorophenyl)-1-(6-(3-hydroxy-3-methylbut-1-yn-1-yl)-3-(1-oxoisoindolin-4-yl)pyridin-2-yl)ethyl)acetamide]",87

# Same assay, conditions: percent inhibition of virus-induced cell killing at 0.2 μM; comparison with previously published compounds (WO 2013/006738)
row,SMILES,Response at 0.2 μM [%]
1,"NC(=O)c1cc(-c2ccc(-c3ccc(F)c(C(N)=O)c3)c([C@H](Cc3cc(F)cc(F)c3)NC(=O)Cn3nc(C(F)F)c4c3C(F)(F)CCC4(F)F)n2)ccc1F [Compound 5G, (S)-5,5′-(6-(1-(2-(3 (difluoromethyl)-4,4,7,7-tetrafluoro-4,5,6,7-tetrahydro-1H-indazol-1-yl)acetamido)-2-(3,5-difluorophenyl)ethyl)pyridine-2,5-diyl)bis(2-fluorobenz amide)]",3

# Same assay, conditions: percent inhibition of virus-induced cell killing at 2 μM drug concentration, from dose response curve; MT-4 cells, HIV-IIIb, 5 days; values above 100 normalized to 100
row,SMILES,% inhibition at 2 μM [%]
1,"CC(C)(O)C#Cc1ccc(-c2cccc3c2CNC3=O)c([C@H](Cc2cc(F)cc(F)c2)NC(=O)Cn2nc(C(F)(F)F)c3c2C(F)(F)[C@@H]2C[C@H]32)n1 [Compound 15, 2-((3bS,4aR)-5,5-difluoro-3-(trifluoromethyl)-3b,4,4a,5-tetrahydro-1H-cyclopropa[3,4]cyclopenta[1,2-c]pyrazol-1-yl)-N—((S)-2-(3,5-difluorophenyl)-1-(6-(3-hydroxy-3-methylbut-1-yn-1-yl)-3-(1-oxoisoindolin-4-yl)pyridin-2-yl)ethyl)acetamide]",94

# Same assay, conditions: percent inhibition of virus-induced cell killing at 2 μM; comparison with previously published compounds (WO 2013/006738)
row,SMILES,Response at 2 μM [%]
1,"NC(=O)c1cc(-c2ccc(-c3ccc(F)c(C(N)=O)c3)c([C@H](Cc3cc(F)cc(F)c3)NC(=O)Cn3nc(C(F)F)c4c3C(F)(F)CCC4(F)F)n2)ccc1F [Compound 5G, (S)-5,5′-(6-(1-(2-(3 (difluoromethyl)-4,4,7,7-tetrafluoro-4,5,6,7-tetrahydro-1H-indazol-1-yl)acetamido)-2-(3,5-difluorophenyl)ethyl)pyridine-2,5-diyl)bis(2-fluorobenz amide)]",58
